Tests used:
Format in all cases: functional, cell-based
[1] = target: T1, OAT3 (Organic anion transporter 3) (Homo sapiens, UniProt Q8TCC7); test: TP_TRANSPORTER: inhibition of E1S uptake (E1S: 0.05 uM, GCV: 1000 uM) in OAT3-expressing S2 cells; design: scale not given: the % may be the effect or the level left; conditions: mouse, probe E1S, read-out: Activity
T1 sequence (Q8TCC7 whole entry): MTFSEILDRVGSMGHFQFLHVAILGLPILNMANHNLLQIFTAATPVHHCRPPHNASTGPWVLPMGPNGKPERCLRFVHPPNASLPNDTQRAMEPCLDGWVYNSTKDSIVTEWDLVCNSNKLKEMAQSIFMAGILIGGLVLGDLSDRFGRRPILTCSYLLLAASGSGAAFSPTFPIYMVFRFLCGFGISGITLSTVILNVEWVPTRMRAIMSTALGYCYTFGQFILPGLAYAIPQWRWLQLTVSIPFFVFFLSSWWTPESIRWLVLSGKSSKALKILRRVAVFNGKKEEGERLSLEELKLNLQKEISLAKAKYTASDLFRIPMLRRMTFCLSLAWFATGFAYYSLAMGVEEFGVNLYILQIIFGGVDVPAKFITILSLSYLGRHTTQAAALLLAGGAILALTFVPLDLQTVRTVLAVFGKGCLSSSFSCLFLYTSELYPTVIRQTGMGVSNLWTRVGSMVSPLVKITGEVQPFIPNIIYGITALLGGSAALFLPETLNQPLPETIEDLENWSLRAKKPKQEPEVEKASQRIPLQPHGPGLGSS

[2] = target: T2, OCT1 (Solute carrier family 22 member 1) (Homo sapiens, UniProt O15245); test: TP_TRANSPORTER: inhibition of TEA uptake (TEA: 5 uM, GCV: 1000 uM) in OCT1-expressing S2 cells; design: scale not given: the % may be the effect or the level left; conditions: probe TEA, read-out: Activity
T2 sequence (O15245 whole entry): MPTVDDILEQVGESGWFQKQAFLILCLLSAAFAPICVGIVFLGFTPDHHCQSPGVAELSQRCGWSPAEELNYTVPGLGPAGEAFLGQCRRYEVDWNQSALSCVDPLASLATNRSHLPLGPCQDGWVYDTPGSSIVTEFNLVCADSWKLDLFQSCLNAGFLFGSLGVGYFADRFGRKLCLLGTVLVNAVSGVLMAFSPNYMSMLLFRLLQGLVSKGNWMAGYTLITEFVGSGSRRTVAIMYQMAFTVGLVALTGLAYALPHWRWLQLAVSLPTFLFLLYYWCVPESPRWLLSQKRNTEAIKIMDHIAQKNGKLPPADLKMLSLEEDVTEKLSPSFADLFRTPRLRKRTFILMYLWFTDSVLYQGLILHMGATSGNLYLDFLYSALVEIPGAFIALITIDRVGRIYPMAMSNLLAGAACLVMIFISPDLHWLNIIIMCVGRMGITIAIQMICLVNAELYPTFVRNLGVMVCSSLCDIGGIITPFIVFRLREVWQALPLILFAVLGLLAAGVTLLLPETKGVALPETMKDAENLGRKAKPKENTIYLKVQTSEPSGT

[3] = target: T3, OAT2 (Solute carrier family 22 member 7) (Homo sapiens, UniProt Q9Y694); test: TP_TRANSPORTER: inhibition of PGF2alpha uptake (PGF2alpha: 0.005 uM, GCV: 1000 uM) in OAT2-expressing S2 cells; design: scale not given: the % may be the effect or the level left; conditions: probe PGF2alpha, read-out: Activity
T3 sequence (Q9Y694 whole entry): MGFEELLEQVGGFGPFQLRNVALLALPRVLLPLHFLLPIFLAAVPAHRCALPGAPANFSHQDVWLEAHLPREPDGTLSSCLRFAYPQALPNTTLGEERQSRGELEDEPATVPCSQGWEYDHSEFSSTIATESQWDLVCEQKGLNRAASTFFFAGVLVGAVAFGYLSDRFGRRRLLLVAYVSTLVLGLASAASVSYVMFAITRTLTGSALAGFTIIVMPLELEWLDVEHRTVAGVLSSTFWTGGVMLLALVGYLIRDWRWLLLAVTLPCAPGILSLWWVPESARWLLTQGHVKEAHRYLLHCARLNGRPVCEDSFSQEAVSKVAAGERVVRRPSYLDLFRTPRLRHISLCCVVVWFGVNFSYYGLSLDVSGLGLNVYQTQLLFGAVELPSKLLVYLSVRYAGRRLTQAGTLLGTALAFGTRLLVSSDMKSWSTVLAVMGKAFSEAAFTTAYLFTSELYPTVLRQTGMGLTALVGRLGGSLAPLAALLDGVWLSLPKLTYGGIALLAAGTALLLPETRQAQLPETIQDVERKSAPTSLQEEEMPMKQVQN

[4] = target: T4, OAT1 (Solute carrier family 22 member 6) (Homo sapiens, UniProt Q4U2R8); test: TP_TRANSPORTER: inhibition of PAH uptake (PAH: 5 uM, GCV: 1000 uM) in OAT1-expressing S2 cells; design: scale not given: the % may be the effect or the level left; conditions: mouse, probe PAH, read-out: Activity
T4 sequence (Q4U2R8 whole entry): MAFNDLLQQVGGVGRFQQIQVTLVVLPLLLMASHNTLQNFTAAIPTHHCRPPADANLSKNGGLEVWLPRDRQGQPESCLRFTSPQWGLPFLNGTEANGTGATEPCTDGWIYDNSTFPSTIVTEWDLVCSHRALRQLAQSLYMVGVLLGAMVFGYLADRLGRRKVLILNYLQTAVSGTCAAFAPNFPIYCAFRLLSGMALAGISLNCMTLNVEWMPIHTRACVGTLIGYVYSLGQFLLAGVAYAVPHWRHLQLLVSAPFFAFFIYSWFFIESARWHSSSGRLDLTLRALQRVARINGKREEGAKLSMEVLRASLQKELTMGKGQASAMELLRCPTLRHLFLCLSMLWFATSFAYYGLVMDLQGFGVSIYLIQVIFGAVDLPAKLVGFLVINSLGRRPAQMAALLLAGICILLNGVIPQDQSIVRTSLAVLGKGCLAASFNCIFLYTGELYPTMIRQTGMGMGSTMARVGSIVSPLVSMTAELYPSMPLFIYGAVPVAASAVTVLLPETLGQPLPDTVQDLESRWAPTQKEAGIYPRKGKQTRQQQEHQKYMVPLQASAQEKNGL

[5] = target: T2, OCT1 (Solute carrier family 22 member 1); test: TP_TRANSPORTER: inhibition of TEA uptake (TEA: 5 uM, ACV: 1000 uM) in OCT1-expressing S2 cells; design: scale not given: the % may be the effect or the level left; conditions: probe TEA, read-out: Activity
[6] = target: T1, OAT3 (Organic anion transporter 3); test: TP_TRANSPORTER: inhibition of Estrone sulfate uptake (E1S: 0.05 uM, ACV: 1000 uM) in OAT3-expressing S2 cells; design: scale not given: the % may be the effect or the level left; conditions: mouse, probe Estrone sulfate (E1S), read-out: Activity
[7] = target: T4, OAT1 (Solute carrier family 22 member 6); test: TP_TRANSPORTER: inhibition of PAH uptake (PAH: 5 uM, ACV: 1000 uM) in OAT1-expressing S2 cells; design: scale not given: the % may be the effect or the level left; conditions: probe PAH, read-out: Activity
[8] = target: T5, OAT4 (Solute carrier family 22 member 11) (Homo sapiens, UniProt Q9NSA0); test: TP_TRANSPORTER: uptake in OAT4-expressing S2 cells
T5 sequence (Q9NSA0 whole entry): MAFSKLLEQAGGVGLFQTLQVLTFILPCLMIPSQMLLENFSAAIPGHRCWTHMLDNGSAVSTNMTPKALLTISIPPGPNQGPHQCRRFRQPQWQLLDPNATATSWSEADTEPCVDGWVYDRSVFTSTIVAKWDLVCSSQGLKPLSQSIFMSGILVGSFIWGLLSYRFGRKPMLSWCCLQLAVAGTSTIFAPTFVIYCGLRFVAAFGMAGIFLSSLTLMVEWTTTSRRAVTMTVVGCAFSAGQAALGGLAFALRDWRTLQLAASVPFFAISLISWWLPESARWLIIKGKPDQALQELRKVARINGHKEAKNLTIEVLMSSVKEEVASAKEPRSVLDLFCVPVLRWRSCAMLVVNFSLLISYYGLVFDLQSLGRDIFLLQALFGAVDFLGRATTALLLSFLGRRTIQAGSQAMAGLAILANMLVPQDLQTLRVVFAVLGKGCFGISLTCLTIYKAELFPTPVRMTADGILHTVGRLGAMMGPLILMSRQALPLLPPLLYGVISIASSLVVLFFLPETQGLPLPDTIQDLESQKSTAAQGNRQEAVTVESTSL

[9] = target: T1, OAT3 (Organic anion transporter 3); test: TP_TRANSPORTER: inhibition of E1S uptake (E1S: 0.05 uM, AZT: 1000 uM) in OAT3-expressing S2 cells; design: scale not given: the % may be the effect or the level left; conditions: mouse, probe E1S, read-out: Activity
[10] = target: T5, OAT4 (Solute carrier family 22 member 11); test: TP_TRANSPORTER: inhibition of E1S uptake (E1S: 0.05 uM, AZT: 1000 uM) in OAT4-expressing S2 cells; design: scale not given: the % may be the effect or the level left; conditions: mouse, probe E1S, read-out: Activity
[11] = target: T4, OAT1 (Solute carrier family 22 member 6); test: (§1) TP_TRANSPORTER: uptake in OAT1-expressing S2 cells
[12] = target: T1, OAT3 (Organic anion transporter 3); test: (§2) TP_TRANSPORTER: uptake in OAT3-expressing S2 cells; conditions: mouse
[13] = target: T4, OAT1 (Solute carrier family 22 member 6); test: TP_TRANSPORTER: inhibition of PAH uptake (PAH: 5 uM, AZT: 1000 uM) in OAT1-expressing S2 cells; design: scale not given: the % may be the effect or the level left; conditions: mouse, probe PAH, read-out: Activity
[14] = target: T3, OAT2 (Solute carrier family 22 member 7); test: TP_TRANSPORTER: uptake in OAT2-expressing S2 cells
[15] = target: T3, OAT2 (Solute carrier family 22 member 7); test: TP_TRANSPORTER: inhibition of PGF2alpha uptake (PGF2alpha: 0.005 uM, AZT: 1000 uM) in OAT2-expressing S2 cells; design: scale not given: the % may be the effect or the level left; conditions: probe PGF2alpha, read-out: Activity
[16] = substrate: CC(C)[C@H](N)C(=O)OCCOCn1cnc2c(=O)[nH]c(N)nc21; test: as §2
[17] = substrate: Nc1nc(O)c2ncn(COC(CO)CO)c2n1; test: (§3) TP_TRANSPORTER: uptake in OCT1-expressing S2 cells
[18] = substrate: Nc1nc2c(ncn2COCCO)c(=O)[nH]1; test: as §3
[19] = substrate: Nc1nc(O)c2ncn(COC(CO)CO)c2n1; test: as §1
[20] = substrate: Nc1nc2c(ncn2COCCO)c(=O)[nH]1; test: as §1

## Nc1nc(O)c2ncn(COC(CO)CO)c2n1 [GANCICLOVIR]
[1]
  activity at 1000 µM: 74.3%
[2]
  activity at 1000 µM: 88.3%
[3]
  activity at 1000 µM: 63.3%
[4]
  activity at 1000 µM: 87.1%

## Nc1nc2c(ncn2COCCO)c(=O)[nH]1 [ACYCLOVIR]
[5]
  activity at 1000 µM: 88.4%
[6]
  activity at 1000 µM: 64.3%
[7]
  activity at 1000 µM: 67%

## Cc1cn([C@H]2C[C@H](N=[N+]=[N-])[C@@H](CO)O2)c(=O)[nH]c1=O [ZIDOVUDINE]
[8]
  Km: 152 µM
[9]
  activity at 1000 µM: 70%
[10]
  activity at 1000 µM: 84.2%
[11]
  Km: 45.9 µM
[12]
  Km: 145 µM
[13]
  activity at 1000 µM: 30.7%
[14]
  Km: 26.8 µM
[15]
  activity at 1000 µM: 76.7%

B1: Organic anion transporter 3 (Homo sapiens) (protein)
chain: T1 sequence (Q8TCC7 whole entry)
[16]
  Km: 57.9 µM

B2: Solute carrier family 22 member 1 (Homo sapiens) (protein)
chain: T2 sequence (O15245 whole entry)
[17]
  Km: 516 µM
[18]
  Km: 151 µM

B3: Solute carrier family 22 member 6 (Homo sapiens) (protein)
chain: T4 sequence (Q4U2R8 whole entry)
[19]
  Km: 896 µM
[20]
  Km: 342 µM

— ChEMBL document CHEMBL2074052, “Human organic anion transporters and human organic cation transporters mediate renal antiviral transport” (J Pharmacol Exp Ther, 2002)
